Reference: PubChem BioAssay AID1963437 (Molecular Pharmacology Branch, DTP, NCI, 2024)

System: OVCAR-8 complex spheroid, growth inhibition
Test: Anticancer human tumor OVCAR-8 cell line growth inhibition [Asc];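 further: spheroids exposed to agents for 7 days before readout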;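 on viability, T/C: percent viability relative to DMSO vehicle wells taken as 100%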
Settings: for IC50: curve of first compound; for viability, T/C: stronger effect = lower value
Outline: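 Tumor cells were grown as complex spheroids with human endothelial cells (HUVEC) and human mesenchymal stem cells as stroma. Agents were tested alone and in combination, in half-log steps down from the clinical Cmax, or from 10 microM where Cmax was unknown.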

[1] = second compound 0.0316 µM, first compound 0.00316 µM
[2] = second compound 0.0316 µM, first compound 0.01 µM
[3] = second compound 0.0316 µM, first compound 0.0316 µM
[4] = second compound 0.0316 µM, first compound 0.1 µM
[5] = second compound 0.0316 µM, first compound 0.316 µM
[6] = second compound 0.0316 µM, first compound 1 µM
[7] = second compound 0.1 µM, first compound 0.00316 µM
[8] = second compound 0.1 µM, first compound 0.01 µM
[9] = second compound 0.1 µM, first compound 0.0316 µM
[10] = second compound 0.1 µM, first compound 0.1 µM
[11] = second compound 0.1 µM, first compound 0.316 µM
[12] = second compound 0.1 µM, first compound 1 µM
[13] = second compound 0.316 µM, first compound 0.00316 µM
[14] = second compound 0.316 µM, first compound 0.01 µM
[15] = second compound 0.316 µM, first compound 0.0316 µM
[16] = second compound 0.316 µM, first compound 0.1 µM
[17] = second compound 0.316 µM, first compound 0.316 µM
[18] = second compound 0.316 µM, first compound 1 µM
[19] = second compound 1 µM, first compound 0.00316 µM
[20] = second compound 1 µM, first compound 0.01 µM
[21] = second compound 1 µM, first compound 0.0316 µM
[22] = second compound 1 µM, first compound 0.1 µM
[23] = second compound 1 µM, first compound 0.316 µM
[24] = second compound 1 µM, first compound 1 µM
[25] = second compound 3.16 µM, first compound 0.00316 µM
[26] = second compound 3.16 µM, first compound 0.01 µM
[27] = second compound 3.16 µM, first compound 0.0316 µM
[28] = second compound 3.16 µM, first compound 0.1 µM
[29] = second compound 3.16 µM, first compound 0.316 µM
[30] = second compound 3.16 µM, first compound 1 µM
[31] = second compound 10 µM, first compound 0.00316 µM
[32] = second compound 10 µM, first compound 0.01 µM
[33] = second compound 10 µM, first compound 0.0316 µM
[34] = second compound 10 µM, first compound 0.1 µM
[35] = second compound 10 µM, first compound 0.316 µM
[36] = second compound 10 µM, first compound 1 µM

`CCN1CCN(Cc2ccc(Nc3ncc(F)c(-c4cc(F)c5nc(C)n(C(C)C)c5c4)n3)nc2)CC1` + Cc1c(S(C)(=O)=O)c(-c2cc(F)cc(N3CCN(c4ccc(NS(=O)(=O)c5ccc(NC(CCN6CCC(C(=O)OCCCP(=O)(O)O)CC6)CSc6ccccc6)c(S(=O)(=O)C(F)(F)F)c5)cc4)CC3)c2)c(-c2ccc(Cl)cc2)n1C(C)C showed an IC50 (second compound 0.0316 µM) greater than 1000 nM, an IC50 (second compound 0.1 µM) greater than 1000 nM and an IC50 (second compound 0.316 µM) greater than 1000 nM. The IC50 (second compound 1 µM) was greater than 1000 nM, the IC50 (second compound 3.16 µM) was greater than 1000 nM and the IC50 (second compound 10 µM) was greater than 1000 nM. For the same compound, the viability, T/C [1] was 102%, the viability, T/C [2] was 96.1% and the viability, T/C [3] was 95.6%. It also gave a viability, T/C [4] of 98.2%, a viability, T/C [5] of 112% and a viability, T/C [6] of 128%. It also gave a viability, T/C [7] of 90.3%, a viability, T/C [8] of 87.8% and a viability, T/C [9] of 90.4%. For the same compound, the viability, T/C [10] was 101%, the viability, T/C [11] was 112% and the viability, T/C [12] was 118%. It also gave a viability, T/C [13] of 93.6%, a viability, T/C [14] of 97.5% and a viability, T/C [15] of 103%. The viability, T/C [16] was 107%, the viability, T/C [17] was 117% and the viability, T/C [18] was 121%. It also gave a viability, T/C [19] of 89.1%, a viability, T/C [20] of 105% and a viability, T/C [21] of 99.7%. It also gave a viability, T/C [22] of 107%, a viability, T/C [23] of 97.5% and a viability, T/C [24] of 122%. It also gave a viability, T/C [25] of 108%, a viability, T/C [26] of 92.3% and a viability, T/C [27] of 103%. The viability, T/C [28] was 89.7%, the viability, T/C [29] was 106% and the viability, T/C [30] was 95.4%. The viability, T/C [31] was 105%, the viability, T/C [32] was 111% and the viability, T/C [33] was 90.2%. For the same compound, the viability, T/C [34] was 116%, the viability, T/C [35] was 93.1% and the viability, T/C [36] was 109%.

`Cn1ncnc1[C@H]1c2n[nH]c(=O)c3cc(F)cc(c23)N[C@@H]1c1ccc(F)cc1` + Cc1c(S(C)(=O)=O)c(-c2cc(F)cc(N3CCN(c4ccc(NS(=O)(=O)c5ccc(NC(CCN6CCC(C(=O)OCCCP(=O)(O)O)CC6)CSc6ccccc6)c(S(=O)(=O)C(F)(F)F)c5)cc4)CC3)c2)c(-c2ccc(Cl)cc2)n1C(C)C showed an IC50 (second compound 0.0316 µM) greater than 100 nM, an IC50 (second compound 0.1 µM) greater than 100 nM and an IC50 (second compound 0.316 µM) greater than 100 nM. The IC50 (second compound 1 µM) was greater than 100 nM, the IC50 (second compound 3.16 µM) was greater than 100 nM and the IC50 (second compound 10 µM) was greater than 100 nM. For the same compound, the viability, T/C (second compound 0.0316 µM, first compound 0.000316 µM) was 96.3%, the viability, T/C (second compound 0.0316 µM, first compound 0.001 µM) was 94.8% and the viability, T/C [1] was 90%. It also gave a viability, T/C [2] of 103%, a viability, T/C [3] of 127% and a viability, T/C [4] of 149%. For the same compound, the viability, T/C (second compound 0.1 µM, first compound 0.000316 µM) was 103%, the viability, T/C (second compound 0.1 µM, first compound 0.001 µM) was 106% and the viability, T/C [7] was 115%. For the same compound, the viability, T/C [8] was 123%, the viability, T/C [9] was 123% and the viability, T/C [10] was 155%. It also gave a viability, T/C (second compound 0.316 µM, first compound 0.000316 µM) of 122%, a viability, T/C (second compound 0.316 µM, first compound 0.001 µM) of 101% and a viability, T/C [13] of 111%. For the same compound, the viability, T/C [14] was 101%, the viability, T/C [15] was 141% and the viability, T/C [16] was 158%. It also gave a viability, T/C (second compound 1 µM, first compound 0.000316 µM) of 106%, a viability, T/C (second compound 1 µM, first compound 0.001 µM) of 109% and a viability, T/C [19] of 106%. The viability, T/C [20] was 110%, the viability, T/C [21] was 125% and the viability, T/C [22] was 160%. For the same compound, the viability, T/C (second compound 3.16 µM, first compound 0.000316 µM) was 130%, the viability, T/C (second compound 3.16 µM, first compound 0.001 µM) was 120% and the viability, T/C [25] was 92.8%. The viability, T/C [26] was 115%, the viability, T/C [27] was 138% and the viability, T/C [28] was 161%. The viability, T/C (second compound 10 µM, first compound 0.000316 µM) was 124%, the viability, T/C (second compound 10 µM, first compound 0.001 µM) was 93.1% and the viability, T/C [31] was 88.3%. The viability, T/C [32] was 127%, the viability, T/C [33] was 169% and the viability, T/C [34] was 164%.

`O=C(c1cc(Cc2n[nH]c(=O)c3ccccc23)ccc1F)N1CCN(C(=O)C2CC2)CC1` + Cc1c(S(C)(=O)=O)c(-c2cc(F)cc(N3CCN(c4ccc(NS(=O)(=O)c5ccc(NC(CCN6CCC(C(=O)OCCCP(=O)(O)O)CC6)CSc6ccccc6)c(S(=O)(=O)C(F)(F)F)c5)cc4)CC3)c2)c(-c2ccc(Cl)cc2)n1C(C)C was tested, and the IC50 (second compound 0.0316 µM) was greater than 10000 nM, the IC50 (second compound 0.1 µM) was greater than 10000 nM and the IC50 (second compound 0.316 µM) was greater than 10000 nM. For the same compound, the IC50 (second compound 1 µM) was greater than 10000 nM, the IC50 (second compound 3.16 µM) was greater than 10000 nM and the IC50 (second compound 10 µM) was greater than 10000 nM. The viability, T/C [3] was 95.1%, the viability, T/C [4] was 97% and the viability, T/C [5] was 88.2%. It also gave a viability, T/C [6] of 102%, a viability, T/C (second compound 0.0316 µM, first compound 3.16 µM) of 137% and a viability, T/C (second compound 0.0316 µM, first compound 10 µM) of 114%. It also gave a viability, T/C [9] of 100%, a viability, T/C [10] of 87.9% and a viability, T/C [11] of 92.5%. For the same compound, the viability, T/C [12] was 98.2%, the viability, T/C (second compound 0.1 µM, first compound 3.16 µM) was 115% and the viability, T/C (second compound 0.1 µM, first compound 10 µM) was 137%. It also gave a viability, T/C [15] of 103%, a viability, T/C [16] of 101% and a viability, T/C [17] of 105%. For the same compound, the viability, T/C [18] was 110%, the viability, T/C (second compound 0.316 µM, first compound 3.16 µM) was 161% and the viability, T/C (second compound 0.316 µM, first compound 10 µM) was 130%. It also gave a viability, T/C [21] of 132%, a viability, T/C [22] of 96.7% and a viability, T/C [23] of 120%. It also gave a viability, T/C [24] of 120%, a viability, T/C (second compound 1 µM, first compound 3.16 µM) of 152% and a viability, T/C (second compound 1 µM, first compound 10 µM) of 109%. It also gave a viability, T/C [27] of 134%, a viability, T/C [28] of 106% and a viability, T/C [29] of 100%. The viability, T/C [30] was 104%, the viability, T/C (second compound 3.16 µM, first compound 3.16 µM) was 140% and the viability, T/C (second compound 3.16 µM, first compound 10 µM) was 107%. The viability, T/C [33] was 125%, the viability, T/C [34] was 107% and the viability, T/C [35] was 112%. For the same compound, the viability, T/C [36] was 124%, the viability, T/C (second compound 10 µM, first compound 3.16 µM) was 159% and the viability, T/C (second compound 10 µM, first compound 10 µM) was 98.9%.

`O=C(c1ccc(F)c(F)c1Nc1ccc(I)cc1F)N1CC(O)([C@@H]2CCCCN2)C1` + Cc1c(S(C)(=O)=O)c(-c2cc(F)cc(N3CCN(c4ccc(NS(=O)(=O)c5ccc(NC(CCN6CCC(C(=O)OCCCP(=O)(O)O)CC6)CSc6ccccc6)c(S(=O)(=O)C(F)(F)F)c5)cc4)CC3)c2)c(-c2ccc(Cl)cc2)n1C(C)C showed an IC50 (second compound 0.0316 µM) greater than 1000 nM, an IC50 (second compound 0.1 µM) greater than 1000 nM and an IC50 (second compound 0.316 µM) greater than 1000 nM. The IC50 (second compound 1 µM) was greater than 1000 nM, the IC50 (second compound 3.16 µM) was greater than 1000 nM and the IC50 (second compound 10 µM) was greater than 1000 nM. For the same compound, the viability, T/C [1] was 103%, the viability, T/C [2] was 114% and the viability, T/C [3] was 140%. For the same compound, the viability, T/C [4] was 173%, the viability, T/C [5] was 234% and the viability, T/C [6] was 135%. The viability, T/C [7] was 110%, the viability, T/C [8] was 134% and the viability, T/C [9] was 160%. For the same compound, the viability, T/C [10] was 199%, the viability, T/C [11] was 254% and the viability, T/C [12] was 122%. The viability, T/C [13] was 115%, the viability, T/C [14] was 115% and the viability, T/C [15] was 157%. It also gave a viability, T/C [16] of 204%, a viability, T/C [17] of 244% and a viability, T/C [18] of 139%. The viability, T/C [19] was 129%, the viability, T/C [20] was 157% and the viability, T/C [21] was 195%. For the same compound, the viability, T/C [22] was 228%, the viability, T/C [23] was 258% and the viability, T/C [24] was 126%. For the same compound, the viability, T/C [25] was 125%, the viability, T/C [26] was 137% and the viability, T/C [27] was 197%. It also gave a viability, T/C [28] of 228%, a viability, T/C [29] of 253% and a viability, T/C [30] of 99.5%. For the same compound, the viability, T/C [31] was 154%, the viability, T/C [32] was 141% and the viability, T/C [33] was 183%. For the same compound, the viability, T/C [34] was 224%, the viability, T/C [35] was 234% and the viability, T/C [36] was 107%.
